Reference: ChEMBL document CHEMBL1126500, “Kinase bypass: A new strategy for anti-HIV drug design” (Bioorg Med Chem Lett, 1993)

Tests used:
[1] = tested on: C8166; assay: Compound was tested for its ability to inhibit the replication of HIV-1 in C8166 T-cells; assay type: functional; details: Homo sapiens, read-out: ED50 (the source's name)
[2] = Toxic dose required to inhibit the replication of HIV-1 in C8166 T-cells; assay type: ADME, cell-based; details: human, read-out: TD50 (the source's name)

| SMILES | EC50 [1] | CC50 [2] |
| --- | --- | --- |
| CC(=O)O[C@H]1C[C@H](n2cc(C)c(=O)[nH]c2=O)O[C@@H]1CO | > 200 µM | > 200 µM |
| Cc1cn([C@H]2C[C@H](OC(=O)C(Cl)(Cl)Cl)[C@@H](COP(=O)(OCC(Cl)(Cl)Cl)OCC(Cl)(Cl)Cl)O2)c(=O)[nH]c1=O | 50 µM | > 200 µM |
| Cc1cn([C@H]2C[C@H](OC(=O)C(C)C)[C@@H](COP(=O)(OCC(Cl)(Cl)Cl)OCC(Cl)(Cl)Cl)O2)c(=O)[nH]c1=O | 40 µM | > 200 µM |
| Cc1cn([C@H]2C[C@H](OC=O)[C@@H](COP(=O)(OCC(Cl)(Cl)Cl)OCC(Cl)(Cl)Cl)O2)c(=O)[nH]c1=O | 100 µM | > 200 µM |
| CC(=O)O[C@H]1C[C@H](n2cc(C)c(=O)[nH]c2=O)O[C@@H]1COP(=O)(OCC(Cl)(Cl)Cl)OCC(Cl)(Cl)Cl | 30 µM | > 200 µM |
| CCC(=O)O[C@H]1C[C@H](n2cc(C)c(=O)[nH]c2=O)O[C@@H]1COP(=O)(OCC(Cl)(Cl)Cl)OCC(Cl)(Cl)Cl | 35 µM | 80 µM |
| Cc1cn([C@H]2C[C@H](OC(=O)CCl)[C@@H](COP(=O)(OCC(Cl)(Cl)Cl)OCC(Cl)(Cl)Cl)O2)c(=O)[nH]c1=O | 50 µM | 50 µM |
| CCCC(=O)O[C@H]1C[C@H](n2cc(C)c(=O)[nH]c2=O)O[C@@H]1COP(=O)(OCC(Cl)(Cl)Cl)OCC(Cl)(Cl)Cl | 75 µM | 80 µM |
| Cc1cn([C@H]2C[C@H](N=[N+]=[N-])[C@@H](CO)O2)c(=O)[nH]c1=O [ZIDOVUDINE] | 0.01 µM | > 200 µM |
